Source: PubChem BioAssay (NCI)
Where “and” joins values, the source holds several entries; their conditions need not be identical. Identical values can stand only once.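 All cell lines were grown in 96-well plates and treated with compound for 48 hours. GI50 = concentration required for 50% inhibition of growth. TGI: concentration producing complete growth inhibition.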 Where a SMILES comes first, the peptide text is derived from it. [ ]: non-standard residue; d: D form. 2Nal = N[CH](Cc1ccc2ccccc2c1)C(=O)O

Legend:
Assay in all cases: growth of human tumour cells (NCI), 48 h
CAKI-1 renal = tested on: CAKI-1 renal
HCC-2998 colon = tested on: HCC-2998 colon
NCI-H226 lung = tested on: NCI-H226 lung
SR leukemia = tested on: SR leukemia
SF-268 CNS = tested on: SF-268 CNS
SNB-75 CNS = tested on: SNB-75 CNS
U251 CNS = tested on: U251 CNS
SW-620 colon = tested on: SW-620 colon
HS 578T breast = tested on: HS 578T breast
MDA-MB-435 = tested on: MDA-MB-435

Structure (SMILES) | TGI (CAKI-1 renal) | TGI (HCC-2998 colon) | TGI (NCI-H226 lung) | TGI (SR leukemia) | TGI (SF-268 CNS) | TGI (SNB-75 CNS) | TGI (U251 CNS) | TGI (SW-620 colon) | GI50 (CAKI-1 renal) | GI50 (HCC-2998 colon) | GI50 (NCI-H226 lung) | GI50 (SR leukemia) | GI50 (SF-268 CNS) | GI50 (HS 578T breast) | TGI (HS 578T breast) | GI50 (MDA-MB-435) | TGI (MDA-MB-435) | GI50 (U251 CNS) | GI50 (SW-620 colon) | GI50 (SNB-75 CNS)
Cc1ccccc1NC(=O)C(=O)Cc1nc2ccccc2s1 | > 100 µM | > 100 µM | > 100 µM | > 100 µM | > 100 µM | > 100 µM | > 100 µM | > 100 µM |  |  |  |  |  |  |  |  |  |  |  | 
CC1CC2C3CC(F)C4=CC(=O)C=CC4(C)C3(F)C(O)CC2(C)C1(O)C(=O)CO (stereo not drawn) | > 100 µM | > 100 µM | > 100 µM | > 100 µM | > 100 µM | > 100 µM | > 100 µM | > 100 µM |  |  |  |  |  |  |  |  |  |  |  | 
NC(=O)c1c(OCc2c(F)cc(Br)cc2F)nsc1NC(=O)NCCCCN1CCCC1 | > 10 µM | > 10 µM | > 10 µM | 4.37 µM | > 10 µM |  | 5.51 µM | > 10 µM | 2.49 µM | 5.26 µM | 0.453 µM | 1.74 µM | 1.78 µM | 0.157 µM | 0.971 µM | 2.26 µM | 6.75 µM | 1.71 µM | 3.03 µM | 
O=c1cccc(C#CCCCCOC2CCCO2)o1 (stereo not drawn) | 33.6 µM |  | 56.2 µM | > 100 µM | > 77.6 µM | > 21.4 µM | > 70.1 µM | > 56.7 µM | 11.4 µM |  | 17.8 µM | 20.4 µM | 9.14 µM | 7.46 µM | 29.2 µM | 16.1 µM | 44.8 µM | 28.8 µM | 8.96 µM | 11.4 µM
CN(C)CC1(C)CC/C(=C\c2ccc3c(c2)OCO3)C1=O (stereo not drawn) | > 100 µM | > 100 µM | > 100 µM | > 100 µM | > 100 µM | > 100 µM | > 100 µM | > 100 µM |  |  |  |  |  |  |  |  |  |  |  | 
CCCCCN(CCCCC)C(=O)[C@@H](CCC(=O)OCc1ccccc1)NC(=O)c1cc2ccccc2[nH]1 | > 100 µM | > 100 µM |  |  | > 100 µM | > 100 µM | > 100 µM | > 100 µM |  |  |  |  |  |  |  |  |  |  |  | 
CC1CC(=O)C(C(O)CC2CC(=O)N(c3ccccc3)C(=O)C2)C(C)C1 (stereo not drawn) | > 100 µM | > 100 µM | > 100 µM | > 100 µM | > 100 µM | > 100 µM | > 100 µM | > 100 µM |  |  |  |  |  |  |  |  |  |  |  | 
COCCN1C2=CCCCC2=Nc2c(N)nc(N)nc21 | > 100 µM | > 100 µM | > 100 µM | > 100 µM | > 100 µM | > 100 µM | > 100 µM |  |  |  |  |  |  |  |  |  |  |  |  | 
COC(=O)C(C(=O)C(=O)Nc1ccccc1OC)c1csc(-n2nc(-c3ccccc3)cc2-c2ccccc2)n1 (stereo not drawn) | > 100 µM | > 100 µM | > 100 µM | > 100 µM | > 100 µM | 92.7 µM | > 100 µM | > 100 µM |  |  |  |  |  |  |  |  |  |  |  | 
O=C(Nc1cc(C(F)(F)F)ccc1Cl)C(=O)C(C(=O)c1ccc2ccccc2c1)C1OC(=O)c2ccccc21 (stereo not drawn) | > 52.5 µM | 22.7 µM | 3.36 µM | 14.9 µM | 52.8 µM | 21.7 µM | 14.3 µM | 37.8 µM |  |  |  |  |  |  |  |  |  |  |  | 
O=C(O)C1Cc2nc[nH]c2CN1 (stereo not drawn) | > 100 µM | > 100 µM | > 100 µM | > 100 µM | > 100 µM | > 100 µM | > 100 µM | > 100 µM |  |  |  |  |  |  |  |  |  |  |  | 
N/C(=N\C(=S)N1CCCCC1)N1CCCCC1 | > 100 µM | > 100 µM | > 100 µM | > 100 µM | > 100 µM | > 100 µM | > 100 µM | > 100 µM |  |  |  |  |  |  |  |  |  |  |  | 
CC(NC1CCC[C@H]1O)c1ccccc1 (mixture of isomers) |  | > 100 µM | > 100 µM |  | > 100 µM | > 100 µM | > 100 µM | > 100 µM |  |  |  |  |  |  |  |  |  |  |  | 
Cc1ccc(NC2=C(Cl)C(=O)c3nc(C)ccc3C2=O)cc1 | 2.68 µM | 3.2 µM | 3.2 µM |  | 3.78 µM | 3.72 µM | 2.75 µM | 3.7 µM | 1.36 µM | 1.67 µM | 1.41 µM |  | 1.74 µM | 1.88 µM | 4.8 µM | 1.48 µM | 2.88 µM | 1.31 µM | 1.74 µM | 1.81 µM
Oc1cccc(C2SCc3nc4ccccc4n32)c1 (stereo not drawn) | > 100 µM | > 100 µM | > 100 µM | > 100 µM | > 100 µM | > 100 µM | > 100 µM | > 100 µM |  |  |  |  |  |  |  |  |  |  |  | 
Nc1nc(N)c(-c2ccccc2)c(C(=O)Nc2ccc(Cl)c(Cl)c2)n1 | > 100 µM | > 100 µM | > 100 µM |  | > 100 µM | > 100 µM | > 100 µM | > 100 µM |  |  |  |  |  |  |  |  |  |  |  | 
C=C(C)C1CC[C@]2(C(=O)O)CCC3(C)[C@H](CCC4[C@@]5(C)CC[C@H](OC6OC(CO)C(O)C6OC6OC(C)C(O)C(O)C6O)[C@@](C)(CO)C5CC[C@]43C)C12 (stereo partly drawn) |  | > 100 µM | > 100 µM | > 100 µM | > 100 µM | > 100 µM | > 100 µM | > 100 µM |  |  |  |  |  |  |  |  |  |  |  | 
O=C1CCC(=O)c2cc(Br)ccc2N1 | > 100 µM | > 100 µM | > 100 µM | 63.1 µM | > 100 µM | > 100 µM | > 100 µM | > 100 µM |  |  |  |  |  |  |  |  |  |  |  | 
Cc1ccc(NC(=O)SCCC(=O)O)cc1NC(=O)SCCC(=O)O | > 100 µM | > 100 µM | > 100 µM | > 100 µM | > 100 µM |  | > 100 µM | > 100 µM |  |  |  |  |  |  |  |  |  |  |  | 
COc1cc(C2C(C(=O)O)=C(C)Oc3cc4c(cc32)OCO4)cc(OC)c1OC (stereo not drawn) | > 100 µM |  |  |  |  | 53.1 µM | > 100 µM | > 100 µM |  |  |  |  |  |  |  |  |  |  |  | 
COC(=O)C1CCc2c(OC)ccc(OC)c2C1=O (stereo not drawn) | > 100 µM | > 100 µM |  |  |  |  | > 100 µM | > 100 µM |  |  |  |  |  |  |  |  |  |  |  | 
O=C1OC(=O)C2C3CCC(O3)C12 (stereo not drawn) | > 100 µM | > 100 µM | > 100 µM | > 100 µM | > 100 µM |  | > 100 µM | > 100 µM |  |  |  |  |  |  |  |  |  |  |  | 
COc1ccc(/C=N/NC(=O)O)cc1 | > 100 µM | > 100 µM |  | > 100 µM |  | > 100 µM | > 100 µM | > 100 µM |  |  |  |  |  |  | > 100 µM |  | > 100 µM |  |  | 
CC(NC(=O)C(N)Cc1ccccc1)C(=O)NC(Cc1ccc(O)cc1)C(=O)NC(Cc1c[nH]c2ccccc12)C(=O)NC(CCCCN)C(=O)NC(C(=O)NC(C)C(=O)NC(Cc1ccc2ccccc2c1)C(N)=O)C(C)C (stereo not drawn) (H-FAYWKVA[2Nal]-NH2; configuration not given here) | > 12.5 µM and 39.1 µM | > 100 µM | > 12.5 µM |  | > 12.5 µM | 71.8 µM | > 12.5 µM and 67 µM | > 12.5 µM |  | 29.7 µM |  |  |  |  | > 12.5 µM |  | > 12.5 µM | 25.1 µM |  | 
